The NIST ThermoML archive (doi:10.1021/je4000845)
± gives the expanded uncertainty stated by the source.

Settings: Crystal; visual observation

Normal melting temperature: 174.1 ± 1 °C
SMILES: Nc1cccc(C(=O)O)c1 [3-aminobenzoic acid]
